Measured values as given in patent publication US11524012B1, “Quinolone analogs and their salts, compositions, and method for their use” (Senhwa Biosciences, Inc., priority 2018, dated 2022).

Test: Stability study of lyophilized Compound I with mannitol (Method A / Method B samples)
Assay type: physicochemical
Conditions: Method B sample
Procedure: […] Each 30 mL Type I, clear glass sample vial with 20 mm Freeze Dry Stoppers (Flurotech™ coated) contained 150 mg of Compound I.
At each time point, a vial was removed from the stored condition and reconstituted with 10 mL of D5W and analyzed by HPLC method as discussed in Example 5 at 1 month, 2 months, 3 months, and/or 6 months. In Tables 18-18e, RRT matches the Compounds as shown below.
Sample Preparation—Method A: 10% Mannitol solution was prepared by weighing 200 g±1.0 g of mannitol into glass beaker, adding approximately 1500 mL of WFI (water for injection) to the beaker and stirring until mannitol was dissolved. The mannitol solution was transferred to a 2 L volumetric flask and made to volume with WFI, then poured back to the original beaker to sir and mix further. 1M HCl solution was prepared by adding 16.4 mL of HCl (37%) to a 200 mL volumetric flask containing approximately 100 mL of WFI, adding WFI to make 200 mL in volume, and inverting to mix the prepared solution.
To a tared 2 L Schott bottle containing a magnetic stirrer and wrapped in aluminum foil, 1020 g±1.0 g of the 10% mannitol solution was added. Then, 58.4 g±0.05 g of the 1M HCl solution was added to the 2 L Schott bottle and stirred for approximately 10 minutes. The solution prepared in the 2 L Schott bottle was purged with nitrogen which was continued throughout the manufacturing process. 30.22 g of Compound I (free base) was weighed then added to the 2 L Schott bottle containing 10% mannitol solution and 1 M HCl solution with continual magnetic stirring. The container used to weigh Compound I was rinsed with 3×10 mL of WFI and added to the Schott bottle. After Compound I dissolved (approximately 40 minutes), additional 650 g of WFI was added to the Schott bottle and the solution was stirred for approximately 10 minutes. The pH of the Compound I solution (in Schott bottle) was measured then adjusted to pH 4.5±0.1 using 1 M HCl solution. After each addition of 1 M HCl solution, the solution was stirred for several minutes prior to verifying the pH. Once the pH was adjusted, nitrogen purging was stopped. The pH adjusted Compound I solution was further diluted with WFI to a target weight of 2040 g±1.0 g and stirred.
The final solution (pH adjusted and diluted) was filtered (chain including PVD Fmembrane filter 0.45 μm and 0.22 μm; peristaltic filtration pump by Watson Marlow) in the Bigneat and the bottle containing the filtered solution was sealed. The filtered solution was pumped (Watson Marlow Flexicon PF6-B pump; 100 RPM) into 30 mL Schott Clear Glass vials (10.0 mL filtered solution each). The glass vials were partially stoppered with 20 mm Freeze Dry Stopper Flurotec (Daikyo Seiko) one vial at a time with sterilized utensils inside a fume hood (Envair B101+1.5R) and placed on freeze dryer trays. The freeze dryer trays were transferred into freeze dry chamber and vial probe was positioned (Lyostar II; FTS Kinetics). Lyophilization was performed using the lyophilization cycle listed below. After lyophilization cycle finished, the vials were back filled with N2 and the stopper was placed in situ, wiped down with isopropanol in the fume hood once removed from the freeze dryer, reconciled, then crimped. Seven vials out of 186 sample vials placed under the lyophilization cycle had smashed in the freeze dryer.
Sample Preparation—Method B (dissolved oxygen content ≤1 ppm): 2 L WFI was poured into a Schott bottled and degassed for 30 minutes with N2 until dissolved oxygen content was ≤1 ppm (dissolved oxygen meter and probe; Mettler Toledo). 10% Mannitol solution was prepared by adding […] of mannitol and 1000 mL of degassed WFI to a tared 2 L Schott bottle containing a magnetic stirrer and wrapped in aluminum foil. To the Schott bottle containing mannitol, 15 mL of 2M HCl was added and stirred for approximately 10 minutes. The resulting solution was sparged with N2 while stirring until dissolved oxygen content was ≤1 ppm (approx. 30 min). […]

[1] = −20° C., time not printed (2nd block, col 1)
[2] = −20° C., time not printed (2nd block, col 2)
[3] = −20° C., time not printed (2nd block, col 3)
[4] = −20° C., time not printed (2nd block, col 4)

With Cc1cnc(CNC(=O)c2c(=O)c3ccc(N4CCCN(C)CC4)nc3n3c2sc2ccccc23)cn1 [Compound I, 2-(4-Methyl-[1,4]diazepan-1-yl)-5-oxo-5H-7-thia-1,11b-diaza-benzo[c]fluorene-6-carboxylic acid (5-methyl-pyrazin-2-ylmethyl)-amide] as the compound, how does the “Related Substances RRT 0.88” value (25° C./60% RH, 24 months) read?
Its value is 0.05%.

What about the “Related Substances RRT 1.05” value (25° C./60% RH, 24 months) of the same compound?
Its value is 0.16%.

And the “Related Substances RRT 1.06” value (25° C./60% RH, 24 months)?
Its value is 0.17%.

What about the “Related Substances Total” value (25° C./60% RH, 24 months) of the same compound?
The value was “Total: 0.4%”.

And the “Water Content USP<921 Method 1c>” value (25° C./60% RH, 24 months)?
The value was 1.33%.

And the “pH (USP<791>)” value (25° C./60% RH, 24 months)?
The value was 4.4.

What about the Appearance (25° C./60% RH, Initial) of the same compound?
Its Appearance is “White”.

And the “Appearance (Reconstituted Solution)” value (25° C./60% RH, Initial)?
Its value is “Clear, colorless”.

And the “Compound I by HPLC assay” value (25° C./60% RH, Initial)?
Its value is 100.2%.

And the “Related Substances RRT 0.96” value (25° C./60% RH, Initial)?
The value was 0.05%.

What about the “Related Substances RRT 1.04” value (25° C./60% RH, Initial) of the same compound?
The value was 0.05%.

What about the “Related Substances RRT 1.06” value (25° C./60% RH, Initial) of the same compound?
Its value is 0.17%.

What about the “Related Substances RRT 1.08” value (25° C./60% RH, Initial) of the same compound?
Its value is 0.06%.

What about the “Related Substances Total” value (25° C./60% RH, Initial) of the same compound?
Its value is “Total: 0.3%”.

And the “Water Content USP<921 Method 1c>” value (25° C./60% RH, Initial)?
The value was 1.12%.

What about the “pH (USP<791>)” value (25° C./60% RH, Initial) of the same compound?
Its value is 4.6.

And the Appearance (−20° C., 1 month)?
The Appearance was “White powder”.

What about the “Appearance (Reconstituted Solution)” value (−20° C., 1 month) of the same compound?
Its value is “Clear, colorless”.

What about the “Compound I by HPLC assay” value (−20° C., 1 month) of the same compound?
The value was 100.9%.

What about the “Reconstitution Time” value (−20° C., 1 month) of the same compound?
The value was 65 s.

What about the “Related Substances RRT 1.06” value (−20° C., 1 month) of the same compound?
Its value is “RRT 1.06: 0.16%”.

What about the “Related Substances RRT 1.08” value (−20° C., 1 month) of the same compound?
Its value is “RRT 1.08: 0.06%”.

What about the “Related Substances Total” value (−20° C., 1 month) of the same compound?
Its value is “Total: 0.2%”.

And the “Water Content USP<921 Method 1c>” value (−20° C., 1 month)?
Its value is 1.13%.

And the “pH (USP<791>)” value (−20° C., 1 month)?
The value was 4.4.

What about the Appearance (−20° C., 3 months) of the same compound?
Its Appearance is “Off-white powder”.

And the “Appearance (Reconstituted Solution)” value (−20° C., 3 months)?
Its value is “Clear, colorless”.

What about the “Compound I by HPLC assay” value (−20° C., 3 months) of the same compound?
The value was 99.5%.

What about the “Related Substances RRT 1.04” value (−20° C., 3 months) of the same compound?
Its value is “RRT 1.04: 0.08%”.

And the “Related Substances RRT 1.05” value (−20° C., 3 months)?
Its value is “RRT 1.05: 0.18%”.

And the “Related Substances Total” value (−20° C., 3 months)?
Its value is “Total: 0.3%”.

What about the “Water Content USP<921 Method 1c>” value (−20° C., 3 months) of the same compound?
Its value is 1.33%.

What about the “pH (USP<791>)” value (−20° C., 3 months) of the same compound?
Its value is 4.4.

What about the Appearance (−20° C., 6 months) of the same compound?
The Appearance was “Off-white powder”.

What about the “Appearance (Reconstituted Solution)” value (−20° C., 6 months) of the same compound?
The value was “Clear, colorless”.

What about the “Compound I by HPLC assay” value (−20° C., 6 months) of the same compound?
The value was 99.7%.

And the “Related Substances RRT 1.05” value (−20° C., 6 months)?
The value was “RRT 1.05: 0.13%”.

What about the “Related Substances Total” value (−20° C., 6 months) of the same compound?
The value was “Total: 0.1%”.

What about the “Water Content USP<921 Method 1c>” value (−20° C., 6 months) of the same compound?
Its value is 1.24%.

And the “pH (USP<791>)” value (−20° C., 6 months)?
Its value is 4.5.

And the Appearance (−20° C., Initial)?
The Appearance was “White powder”.

And the “Appearance (Reconstituted Solution)” value (−20° C., Initial)?
Its value is “Clear, colorless”.

And the “Compound I by HPLC assay” value (−20° C., Initial)?
The value was 100.2%.

And the “Related Substances RRT 0.96” value (−20° C., Initial)?
Its value is “RRT 0.96: 0.05%”.

And the “Related Substances RRT 1.04” value (−20° C., Initial)?
Its value is “RRT 1.04: 0.05%”.

What about the “Related Substances RRT 1.06” value (−20° C., Initial) of the same compound?
Its value is “RRT 1.06: 0.17%”.

And the “Related Substances RRT 1.08” value (−20° C., Initial)?
The value was “RRT 1.08: 0.06%”.

And the “Related Substances Total” value (−20° C., Initial)?
Its value is “Total:0.3%”.

What about the “Water Content USP<921 Method 1c>” value (−20° C., Initial) of the same compound?
Its value is 1.12%.

And the “pH (USP<791>)” value (−20° C., Initial)?
Its value is 4.6.

And the Appearance [1]?
The Appearance was “Off-white powder”.

And the “Appearance (Reconstituted Solution)” value [1]?
Its value is “Clear, colorless”.

And the “Compound I by HPLC assay” value [1]?
Its value is 100.8%.

And the “Related Substances RRT 1.05” value [1]?
Its value is “RRT 1.05: 0.13%”.

What about the “Related Substances Total” value [1] of the same compound?
The value was “Total: 0.1%”.

What about the “Water Content USP<921 Method 1c>” value [1] of the same compound?
Its value is 1.30%.

What about the “pH (USP<791>)” value [1] of the same compound?
The value was 4.6.

What about the Appearance [2] of the same compound?
Its Appearance is “Off-white powder”.

And the “Appearance (Reconstituted Solution)” value [2]?
The value was “Clear, colorless”.

What about the “Compound I by HPLC assay” value [2] of the same compound?
The value was 101.9%.

And the “Related Substances RRT 1.05” value [2]?
The value was “RRT 1.05: 0.13%”.

What about the “Related Substances Total” value [2] of the same compound?
The value was “Total: 0.1%”.

And the “Water Content USP<921 Method 1c>” value [2]?
The value was 1.29%.

What about the “pH (USP<791>)” value [2] of the same compound?
Its value is 4.5.

And the Appearance [3]?
The Appearance was “Off-white powder”.

What about the “Appearance (Reconstituted Solution)” value [3] of the same compound?
The value was “Clear, colorless”.

And the “Compound I by HPLC assay” value [3]?
The value was 101.3%.

What about the “Related Substances RRT 1.05” value [3] of the same compound?
Its value is “RRT 1.05: 0.12%”.

And the “Related Substances Total” value [3]?
Its value is “Total: 0.1%”.

What about the “Water Content USP<921 Method 1c>” value [3] of the same compound?
The value was 1.10%.

What about the “pH (USP<791>)” value [3] of the same compound?
Its value is 4.5.

And the Appearance [4]?
Its Appearance is “Off-white powder”.

What about the “Appearance (Reconstituted Solution)” value [4] of the same compound?
The value was “Clear, colorless”.

And the “Compound I by HPLC assay” value [4]?
The value was 98.1%.

And the “Related Substances RRT 1.05” value [4]?
The value was “RRT 1.05: 0.10%”.

And the “Related Substances Total” value [4]?
Its value is “Total: 0.1%”.

What about the “Water Content USP<921 Method 1c>” value [4] of the same compound?
Its value is 1.10%.

And the “pH (USP<791>)” value [4]?
Its value is 4.4.
